Laboratory results from ChEMBL document CHEMBL5608232, “Novel Glucagon-like Peptide 1 Receptor Agonists for Treating Type II Diabetes” (ACS Med Chem Lett, 2024).

The compounds below were run against Glucagon-like peptide 1 receptor (Homo sapiens, UniProt P43220) (assay: Agonist activity at human GLP-1R expressed in HEK293 cells assessed as increase in intracellular cAMP level incubated for 30 mins by HTRF assay).
Format: functional, cell-based

Chain of Glucagon-like peptide 1 receptor (P43220 whole entry): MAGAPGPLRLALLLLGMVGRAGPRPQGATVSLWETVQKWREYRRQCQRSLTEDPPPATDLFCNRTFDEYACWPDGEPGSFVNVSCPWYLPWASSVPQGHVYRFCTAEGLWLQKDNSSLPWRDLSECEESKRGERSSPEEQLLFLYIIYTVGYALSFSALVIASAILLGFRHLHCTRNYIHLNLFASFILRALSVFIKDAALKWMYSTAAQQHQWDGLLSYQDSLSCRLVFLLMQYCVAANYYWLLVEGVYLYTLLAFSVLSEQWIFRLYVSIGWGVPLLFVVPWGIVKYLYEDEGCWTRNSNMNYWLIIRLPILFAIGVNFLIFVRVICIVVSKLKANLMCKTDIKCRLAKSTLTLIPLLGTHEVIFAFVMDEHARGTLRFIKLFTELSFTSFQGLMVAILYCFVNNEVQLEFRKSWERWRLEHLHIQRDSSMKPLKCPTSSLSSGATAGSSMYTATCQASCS

Which EC50 does the source give for `COc1cc(C(=O)O)cc2c1nc(Cc1cc(F)c(-c3cccc(OCc4ccc(C#N)cc4C)n3)cc1F)n2C[C@@H]1CCO1` here?
The EC50 was 0.3 nM.

How did the EC50 turn out when `COCCOc1cc(C(=O)O)cc2c1nc(Cc1cc(F)c(-c3cccc(OCc4ccc(C#N)cc4F)n3)cc1F)n2C[C@@H]1CCO1` was run?
The EC50 was 0.297 nM.

For `COc1cc(C(=O)O)cc2c1nc(Cc1cc(C)c(-c3cccc(OCc4ccc(C#N)cc4F)n3)cc1F)n2C[C@@H]1CCO1`, which EC50 is on record?
The EC50 was 0.291 nM.

`COc1cc(C(=O)O)cc2c1nc(Cc1cc(F)c(-c3cccc(OCc4ccc(C#N)cc4F)n3)cc1F)n2C[C@@H]1CCO1` was tested. Which EC50 did it give?
Its EC50 is 0.221 nM.

For `COc1cc(C#N)ccc1COc1cccc(-c2cc(F)c(Cc3nc4c(OC)cc(C(=O)O)cc4n3C[C@@H]3CCO3)cc2F)n1`, which EC50 is on record?
The EC50 was 0.167 nM.

Which EC50 does the source give for `COc1cc(C(=O)O)cc2c1nc(Cc1cc(F)c(-c3cccc(OCc4ccc(-n5cncn5)cc4)n3)cc1F)n2C[C@@H]1CCO1` here?
The EC50 was 0.402 nM.
